Assay results reported in ChEMBL document CHEMBL4376834, “Discovery of 4H-Chromen-4-one Derivatives as a New Class of Selective Rho Kinase (ROCK) Inhibitors, which Showed Potent Activity in ex Vivo Diabetic Retinopathy Models” (J Med Chem, 2019).

Experiments:
[1] = Inhibition of human PKA using Kemptide as substrate incubated for 40 mins in presence of [gamma-33P]ATP by radiometric scintillation counting analysis
[2] = molecular target: Rho-associated protein kinase 1 (Homo sapiens, UniProt Q13464); test: Inhibition of recombinant human ROCK1 (17 to 535 residues) using […] as substrate incubated for 40 mins in presence of [gamma-33P]ATP and 10 uM ATP by radiometric scintillation counting analysis
Rho-associated protein kinase 1, sequence (Q13464 whole entry, the tested form may be a part): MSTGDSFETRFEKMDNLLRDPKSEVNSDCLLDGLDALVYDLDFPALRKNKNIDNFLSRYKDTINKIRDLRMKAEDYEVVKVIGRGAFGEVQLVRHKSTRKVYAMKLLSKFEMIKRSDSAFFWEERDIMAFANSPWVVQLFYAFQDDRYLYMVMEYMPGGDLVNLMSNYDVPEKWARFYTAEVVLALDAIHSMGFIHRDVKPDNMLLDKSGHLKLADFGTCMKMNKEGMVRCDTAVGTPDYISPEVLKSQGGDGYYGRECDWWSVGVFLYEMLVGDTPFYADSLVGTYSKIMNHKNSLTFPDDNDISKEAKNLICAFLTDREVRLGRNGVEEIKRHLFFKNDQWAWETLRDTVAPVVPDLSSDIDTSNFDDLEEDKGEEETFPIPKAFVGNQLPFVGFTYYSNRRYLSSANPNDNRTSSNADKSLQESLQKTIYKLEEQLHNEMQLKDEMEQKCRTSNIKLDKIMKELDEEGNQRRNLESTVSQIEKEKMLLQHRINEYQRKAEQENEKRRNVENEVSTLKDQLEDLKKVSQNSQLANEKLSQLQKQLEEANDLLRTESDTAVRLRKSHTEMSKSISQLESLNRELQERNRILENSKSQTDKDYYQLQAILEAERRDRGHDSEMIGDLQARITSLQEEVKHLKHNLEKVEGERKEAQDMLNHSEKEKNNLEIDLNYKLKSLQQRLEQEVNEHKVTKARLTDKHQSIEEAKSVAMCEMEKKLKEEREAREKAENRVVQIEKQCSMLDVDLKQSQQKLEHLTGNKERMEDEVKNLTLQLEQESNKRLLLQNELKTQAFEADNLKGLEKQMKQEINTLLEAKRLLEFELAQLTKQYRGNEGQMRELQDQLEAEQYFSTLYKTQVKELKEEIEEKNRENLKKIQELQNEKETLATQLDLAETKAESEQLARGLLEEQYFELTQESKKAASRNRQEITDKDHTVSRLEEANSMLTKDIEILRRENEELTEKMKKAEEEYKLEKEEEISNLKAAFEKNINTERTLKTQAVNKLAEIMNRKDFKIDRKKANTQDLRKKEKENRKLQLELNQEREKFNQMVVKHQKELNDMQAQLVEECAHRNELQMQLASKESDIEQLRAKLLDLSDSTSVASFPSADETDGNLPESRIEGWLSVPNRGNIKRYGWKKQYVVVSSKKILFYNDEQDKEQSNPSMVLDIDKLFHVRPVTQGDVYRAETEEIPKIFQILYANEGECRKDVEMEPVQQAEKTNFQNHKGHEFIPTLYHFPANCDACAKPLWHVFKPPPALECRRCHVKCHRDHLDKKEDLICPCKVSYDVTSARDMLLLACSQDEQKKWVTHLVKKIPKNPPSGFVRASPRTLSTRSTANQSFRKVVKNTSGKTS

[3] = molecular target: Rho-associated protein kinase 2 (Homo sapiens, UniProt O75116); test: Inhibition of recombinant human ROCK2 (11 to 552 residues) using KEAKEKRQEQIAKR as substrate incubated for 40 mins in presence of [gamma-33P]ATP and 10 uM ATP by radiometric scintillation counting analysis
Rho-associated protein kinase 2, sequence (O75116 whole entry, the tested form may be a part): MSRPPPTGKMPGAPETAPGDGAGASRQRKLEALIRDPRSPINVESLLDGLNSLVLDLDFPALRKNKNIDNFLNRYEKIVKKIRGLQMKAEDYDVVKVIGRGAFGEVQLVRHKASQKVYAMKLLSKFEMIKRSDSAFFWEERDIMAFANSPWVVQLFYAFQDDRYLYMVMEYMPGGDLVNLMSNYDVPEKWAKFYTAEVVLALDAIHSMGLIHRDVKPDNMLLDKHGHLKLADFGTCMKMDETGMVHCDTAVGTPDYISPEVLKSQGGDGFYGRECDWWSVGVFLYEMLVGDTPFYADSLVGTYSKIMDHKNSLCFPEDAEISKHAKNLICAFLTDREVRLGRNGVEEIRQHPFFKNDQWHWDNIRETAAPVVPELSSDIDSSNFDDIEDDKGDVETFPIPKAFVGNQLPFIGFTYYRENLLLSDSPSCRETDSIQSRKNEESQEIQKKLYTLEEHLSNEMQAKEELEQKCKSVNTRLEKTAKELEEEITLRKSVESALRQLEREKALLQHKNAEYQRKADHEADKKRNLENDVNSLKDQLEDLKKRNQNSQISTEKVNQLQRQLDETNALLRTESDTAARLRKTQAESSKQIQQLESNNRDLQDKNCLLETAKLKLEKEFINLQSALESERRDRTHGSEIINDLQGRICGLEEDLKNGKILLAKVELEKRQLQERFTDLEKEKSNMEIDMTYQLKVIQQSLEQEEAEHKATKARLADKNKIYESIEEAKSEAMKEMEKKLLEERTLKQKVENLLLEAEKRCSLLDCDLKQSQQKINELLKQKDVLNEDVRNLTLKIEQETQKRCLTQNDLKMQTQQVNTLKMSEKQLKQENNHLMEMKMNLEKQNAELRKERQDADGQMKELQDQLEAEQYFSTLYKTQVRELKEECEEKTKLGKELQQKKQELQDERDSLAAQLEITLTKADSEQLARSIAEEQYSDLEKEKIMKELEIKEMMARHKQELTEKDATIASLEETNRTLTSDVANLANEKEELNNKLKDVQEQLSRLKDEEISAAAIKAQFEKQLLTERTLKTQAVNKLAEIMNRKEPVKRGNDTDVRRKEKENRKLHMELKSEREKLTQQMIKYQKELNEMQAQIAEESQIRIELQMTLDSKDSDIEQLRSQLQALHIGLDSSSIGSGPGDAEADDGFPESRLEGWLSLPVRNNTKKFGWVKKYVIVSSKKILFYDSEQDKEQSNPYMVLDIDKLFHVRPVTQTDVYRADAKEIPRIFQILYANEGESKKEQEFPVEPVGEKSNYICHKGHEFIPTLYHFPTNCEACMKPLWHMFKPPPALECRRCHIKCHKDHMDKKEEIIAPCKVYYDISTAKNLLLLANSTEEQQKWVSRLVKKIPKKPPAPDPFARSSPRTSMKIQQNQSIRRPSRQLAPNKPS

Compound: CN(C)c1ccc(C(=O)Nc2cc(F)cc(NC(=O)COc3ccc4c(=O)ccoc4c3)c2)cc1
- IC50 [1]: > 10000 nM
- IC50 [2]: 49 nM
- IC50 [3]: 22 nM

Compound: O=C(COc1ccc2c(=O)ccoc2c1)Nc1cccc(NC(=O)c2cccc([N+](=O)[O-])c2)c1
- IC50 [1]: > 10000 nM
- IC50 [2]: 528 nM
- IC50 [3]: 41 nM

Compound: Nc1cccc(C(=O)Nc2cccc(NC(=O)COc3ccc4c(=O)ccoc4c3)c2)c1
- IC50 [1]: > 10000 nM
- IC50 [2]: 670 nM
- IC50 [3]: 58 nM

Compound: Cc1cc(NC(=O)COc2ccc3c(=O)ccoc3c2)cc(NC(=O)c2ccc(N(C)C)cc2)c1
- IC50 [1]: > 10000 nM
- IC50 [2]: > 10000 nM
- IC50 [3]: > 10000 nM

Compound: CN(C)c1ccc(C(=O)Nc2cccc(NC(=O)COc3ccc4c(c3)OCO4)c2)cc1
- IC50 [1]: > 10000 nM
- IC50 [2]: > 10000 nM
- IC50 [3]: > 10000 nM

Compound: O=C(COc1ccc2c(=O)ccoc2c1)Nc1cccc(NC(=O)c2ccc(Br)cc2)c1
- IC50 [1]: > 10000 nM
- IC50 [2]: 303 nM
- IC50 [3]: 49 nM

Compound: COc1cc(OCC(=O)Nc2cccc(NC(=O)c3ccc(N(C)C)cc3)c2)ccc1C=O
- IC50 [1]: > 10000 nM
- IC50 [2]: 3740 nM
- IC50 [3]: 306 nM

Compound: COc1ccc(OCC(=O)Nc2cccc(NC(=O)c3ccc(N(C)C)cc3)c2)cc1OC
- IC50 [1]: > 10000 nM
- IC50 [2]: > 10000 nM
- IC50 [3]: > 10000 nM

Compound: CN(C)c1ccc(C(=O)Nc2cccc(NC(=O)COc3ccc4occc(=O)c4c3)c2)cc1
- IC50 [1]: > 10000 nM
- IC50 [2]: > 10000 nM
- IC50 [3]: > 10000 nM

Compound: CN(C)c1ccc(S(=O)(=O)Nc2cccc(NC(=O)COc3ccc4c(=O)ccoc4c3)c2)cc1
- IC50 [1]: > 10000 nM
- IC50 [2]: 803 nM
- IC50 [3]: 263 nM

Compound: CCc1ccc(C(=O)Nc2cccc(NC(=O)COc3ccc4c(=O)ccoc4c3)c2)cc1
- IC50 [1]: > 10000 nM
- IC50 [2]: 235 nM
- IC50 [3]: 24 nM

Compound: Cc1ccc(C(=O)Nc2cccc(NC(=O)COc3ccc4c(=O)ccoc4c3)c2)cc1
- IC50 [1]: > 10000 nM
- IC50 [2]: 183 nM
- IC50 [3]: 22 nM

Compound: O=C(COc1ccc2c(=O)ccoc2c1)Nc1cccc(NC(=O)c2ccccc2)c1
- IC50 [1]: 3260 nM
- IC50 [2]: 120 nM
- IC50 [3]: 16 nM

Compound: CN(C)c1ccc(C(=O)Nc2cccc(NC(=O)COc3ccc4c(c3)CCC(=O)N4)c2)cc1
- IC50 [1]: > 10000 nM
- IC50 [2]: > 10000 nM
- IC50 [3]: 9970 nM

Compound: Cn1ccc(S(=O)(=O)Nc2cccc(NC(=O)COc3ccc4c(=O)ccoc4c3)c2)n1
- IC50 [1]: > 10000 nM
- IC50 [2]: > 10000 nM
- IC50 [3]: 1340 nM

Compound: Cc1c(OCC(=O)Nc2cccc(NC(=O)c3ccc(N(C)C)cc3)c2)ccc2c(=O)ccoc12
- IC50 [1]: > 10000 nM
- IC50 [2]: > 10000 nM
- IC50 [3]: 4160 nM

Compound: Cc1c(NC(=O)COc2ccc3c(=O)ccoc3c2)cccc1NC(=O)c1ccc(N(C)C)cc1
- IC50 [1]: > 10000 nM
- IC50 [2]: > 10000 nM
- IC50 [3]: > 10000 nM

Compound: Cc1ccc(NC(=O)COc2ccc3c(=O)ccoc3c2)cc1NC(=O)c1ccc(N(C)C)cc1
- IC50 [1]: > 10000 nM
- IC50 [2]: 1040 nM
- IC50 [3]: 169 nM

Compound: CC(C)(C)c1cc(C(=O)Nc2cccc(NC(=O)COc3ccc4c(=O)ccoc4c3)c2)no1
- IC50 [1]: > 10000 nM
- IC50 [2]: 101 nM
- IC50 [3]: 5 nM

Compound: O=C(COc1ccc2c(=O)ccoc2c1)Nc1cccc(NC(=O)c2ccc(F)cc2)c1
- IC50 [1]: > 10000 nM
- IC50 [2]: 129 nM
- IC50 [3]: 54 nM

Compound: CN(C)c1ccc(C(=O)Nc2ccc(NC(=O)COc3ccc4c(=O)ccoc4c3)cc2C(F)(F)F)cc1
- IC50 [1]: > 10000 nM
- IC50 [2]: > 10000 nM
- IC50 [3]: 7100 nM

Compound: Cc1nc(C(=O)Nc2cccc(NC(=O)COc3ccc4c(=O)ccoc4c3)c2)cs1
- IC50 [1]: > 10000 nM
- IC50 [2]: 473 nM
- IC50 [3]: 33 nM

Compound: CN(C)c1ccc(C(=O)Nc2cccc(NC(=O)COc3ccc4c(c3)OCCO4)c2)cc1
- IC50 [1]: > 10000 nM
- IC50 [2]: > 10000 nM
- IC50 [3]: > 10000 nM

Compound: Cc1cc(C(=O)Nc2cccc(NC(=O)COc3ccc4c(=O)ccoc4c3)c2)ccc1C(F)(F)F
- IC50 [1]: > 10000 nM
- IC50 [2]: 460 nM
- IC50 [3]: 43 nM

Compound: CN(C)c1ccc(C(=O)Nc2cccc(NC(=O)COc3ccc4c(c3)NC(=O)CC4)c2)cc1
- IC50 [1]: > 10000 nM
- IC50 [2]: > 10000 nM
- IC50 [3]: 3140 nM

Compound: COc1ccc(C(=O)Nc2cccc(NC(=O)COc3ccc4c(=O)ccoc4c3)c2)cc1
- IC50 [1]: > 10000 nM
- IC50 [2]: 18 nM
- IC50 [3]: 7 nM

Compound: O=C(COc1ccc2c(=O)ccoc2c1)Nc1cccc(NS(=O)(=O)c2ccc(OC(F)(F)F)cc2)c1
- IC50 [1]: > 10000 nM
- IC50 [2]: 6440 nM
- IC50 [3]: 1280 nM

Compound: COc1cccc(OCC(=O)Nc2cccc(NC(=O)c3ccc(N(C)C)cc3)c2)c1
- IC50 [1]: > 10000 nM
- IC50 [2]: > 10000 nM
- IC50 [3]: 5740 nM

Compound: Cc1cc(NC(=O)COc2ccc3c(=O)ccoc3c2)cc(NC(=O)c2ccc(N(C)C)cc2)c1C
- IC50 [1]: > 10000 nM
- IC50 [2]: 3950 nM
- IC50 [3]: 374 nM

Compound: CN(C)c1ccc(C(=O)Nc2ccc(CNC(=O)COc3ccc4c(=O)ccoc4c3)cc2)cc1
- IC50 [1]: > 10000 nM
- IC50 [2]: > 10000 nM
- IC50 [3]: 999 nM

Compound: O=C(COc1ccc2c(=O)ccoc2c1)Nc1cccc(NC(=O)c2ccc(C(=O)O)cc2)c1
- IC50 [1]: > 10000 nM
- IC50 [2]: 6890 nM
- IC50 [3]: 2030 nM

Compound: Cc1cc(C(=O)Nc2cccc(NC(=O)COc3ccc4c(=O)ccoc4c3)c2)no1
- IC50 [1]: > 10000 nM
- IC50 [2]: 68 nM
- IC50 [3]: 5 nM

Compound: NCc1ccc(C(=O)Nc2cccc(NC(=O)COc3ccc4c(=O)ccoc4c3)c2)cc1
- IC50 [1]: > 10000 nM
- IC50 [2]: 532 nM
- IC50 [3]: 66 nM

Compound: O=C(COc1ccc2c(=O)ccoc2c1)Nc1cccc(NS(=O)(=O)c2ccc(C(F)(F)F)cc2)c1
- IC50 [1]: > 10000 nM
- IC50 [2]: > 10000 nM
- IC50 [3]: 6890 nM

Compound: CN(C)c1ccc(C(=O)Nc2cccc(NC(=O)COc3ccc4c(c3)OCCC4=O)c2)cc1
- IC50 [1]: > 10000 nM
- IC50 [2]: 144 nM
- IC50 [3]: 85 nM

Compound: CN(C)c1ccc(C(=O)Nc2ccc(NC(=O)COc3ccc4c(=O)ccoc4c3)cc2)cc1
- IC50 [1]: > 10000 nM
- IC50 [2]: 1050 nM
- IC50 [3]: 302 nM

Compound: CCCC(=O)Nc1cccc(NC(=O)COc2ccc3c(=O)ccoc3c2)c1
- IC50 [1]: > 10000 nM
- IC50 [2]: 1430 nM
- IC50 [3]: 176 nM

Compound: COc1ccc(OCC(=O)Nc2cccc(NC(=O)c3ccc(N(C)C)cc3)c2)cc1F
- IC50 [1]: > 10000 nM
- IC50 [2]: 1820 nM
- IC50 [3]: 652 nM

Compound: Nc1ccc(C(=O)Nc2cccc(NC(=O)COc3ccc4c(=O)ccoc4c3)c2)cc1
- IC50 [1]: > 10000 nM
- IC50 [2]: 802 nM
- IC50 [3]: 83 nM

Compound: CN(C)c1ccc(C(=O)Nc2cc(NC(=O)COc3ccc4c(=O)ccoc4c3)cc(C(F)(F)F)c2)cc1
- IC50 [1]: > 10000 nM
- IC50 [2]: > 10000 nM
- IC50 [3]: > 10000 nM

Compound: CC(=O)Nc1cccc(NC(=O)COc2ccc3c(=O)ccoc3c2)c1
- IC50 [1]: > 10000 nM
- IC50 [2]: 2500 nM
- IC50 [3]: 136 nM

Compound: CC(C)(C)c1ccc(C(=O)Nc2cccc(NC(=O)COc3ccc4c(=O)ccoc4c3)c2)cc1
- IC50 [1]: > 10000 nM
- IC50 [2]: 165 nM
- IC50 [3]: 34 nM

Compound: Cc1ccc(NC(=O)c2ccc(N(C)C)cc2)cc1NC(=O)COc1ccc2c(=O)ccoc2c1
- IC50 [1]: > 10000 nM
- IC50 [2]: > 10000 nM
- IC50 [3]: 3530 nM

Compound: CN(C)c1ccc(C(=O)Nc2cc(Br)cc(NC(=O)COc3ccc4c(=O)ccoc4c3)c2)cc1
- IC50 [1]: > 10000 nM
- IC50 [2]: > 10000 nM
- IC50 [3]: 4560 nM

Compound: CC(C)(C)c1ccc(S(=O)(=O)Nc2cccc(NC(=O)COc3ccc4c(=O)ccoc4c3)c2)cc1
- IC50 [1]: > 10000 nM
- IC50 [2]: > 10000 nM
- IC50 [3]: 899 nM

Compound: CCCc1ccc(C(=O)Nc2cccc(NC(=O)COc3ccc4c(=O)ccoc4c3)c2)cc1
- IC50 [1]: > 10000 nM
- IC50 [2]: 143 nM
- IC50 [3]: 14 nM

Compound: Cc1coc2cc(OCC(=O)Nc3cccc(NC(=O)c4ccc(N(C)C)cc4)c3)ccc2c1=O
- IC50 [1]: > 10000 nM
- IC50 [2]: > 10000 nM
- IC50 [3]: 2150 nM

Compound: O=C(COc1ccc2c(=O)ccoc2c1)Nc1cccc(NC(=O)c2ccc([N+](=O)[O-])cc2)c1
- IC50 [1]: 9340 nM
- IC50 [2]: 67 nM
- IC50 [3]: 15 nM

Compound: CCOc1ccc(C(=O)Nc2cccc(NC(=O)COc3ccc4c(=O)ccoc4c3)c2)cc1
- IC50 [1]: > 10000 nM
- IC50 [2]: 17 nM
- IC50 [3]: 9 nM

Compound: O=C(COc1ccc2c(=O)ccoc2c1)Nc1cccc(NC(=O)c2ccc(OC(F)(F)F)cc2)c1
- IC50 [1]: > 10000 nM
- IC50 [2]: 869 nM
- IC50 [3]: 77 nM

Compound: CC(=O)c1ccc(OCC(=O)Nc2cccc(NC(=O)c3ccc(N(C)C)cc3)c2)cc1F
- IC50 [1]: > 10000 nM
- IC50 [2]: 445 nM
- IC50 [3]: 98 nM

Compound: O=C(COc1ccc2c(=O)ccoc2c1)Nc1cccc(NC(=O)c2cnc(C(F)(F)F)s2)c1
- IC50 [1]: > 10000 nM
- IC50 [2]: 160 nM
- IC50 [3]: 10 nM

Compound: COC(=O)c1ccc(C(=O)Nc2cccc(NC(=O)COc3ccc4c(=O)ccoc4c3)c2)cc1
- IC50 [1]: > 10000 nM
- IC50 [2]: 72 nM
- IC50 [3]: 29 nM

Compound: CN(C)c1ccc(C(=O)Nc2cccc(NS(=O)(=O)COc3ccc4c(=O)ccoc4c3)c2)cc1
- IC50 [1]: > 10000 nM
- IC50 [2]: 117 nM
- IC50 [3]: 27 nM

Compound: N#Cc1ccc(C(=O)Nc2cccc(NC(=O)COc3ccc4c(=O)ccoc4c3)c2)cc1
- IC50 [1]: > 10000 nM
- IC50 [2]: 123 nM
- IC50 [3]: 15 nM

Compound: Cc1cc(NC(=O)COc2ccc3c(=O)ccoc3c2)ccc1NC(=O)c1ccc(N(C)C)cc1
- IC50 [1]: > 10000 nM
- IC50 [2]: > 10000 nM
- IC50 [3]: 4210 nM
